Data from patent US20100120690A1, “Polypeptides Having Antimicrobial Activity and Polynucleotides Encoding Same” (Novozymes Adenium Biotech A/S, priority 2005, published 2010).

Key:
Format in all cases: cell-based
[1] = system: Staphylococcus aureus, ATCC 29213; assay: MIC, NCCLS/CLSI guidelines (Example 5), strain A; conditions: relative to wildtype Plectasin; average of two independent experiments
Method: (§1) Plectasin wild-type (SEQ ID NO: 1) and several variants of Plectasin were expressed and purified. The Minimal Inhibitory Concentration (MIC) was determined to test for their antimicrobial activity following the NCCLS guidelines from CLSI (Clinical and Laboratory Standards Institute; formerly known as National Committee for Clinical and Laboratory Standards).
(§2) The peptides were tested against the following strains: • A: Staphylococcus aureus, ATCC 29213; • B: Staphylococcus aureus, ATCC 25923; • C: Staphylococcus aureus, ATCC 29737; • D: Staphylococcus aureus, MRSA ST5 (2001), multi-resistant clinical human isolate from Statens Serum Institut, Denmark; • E: Staphylococcus aureus, MRSA ST80 (2003), multi-resistant clinical human isolate from Statens Serum Institut, Denmark.
(§3) All MIC values represent an average of two independent experiments; and all results in Table 5 are expressed relative to wildtype Plectasin:
(§4) 0: >100% of Plectasin wildtype MIC; 1: 80-100% of Plectasin wildtype MIC; 2: 50-80% of Plectasin wildtype MIC; 3: <50% of Plectasin wildtype MIC.

[2] = system: Staphylococcus aureus, ATCC 25923; assay: MIC, NCCLS/CLSI guidelines (Example 5), strain B; conditions: relative to wildtype Plectasin; average of two independent experiments
Method: as §1, §2, §3, §4

[3] = system: Staphylococcus aureus, ATCC 29737; assay: MIC, NCCLS/CLSI guidelines (Example 5), strain C; conditions: relative to wildtype Plectasin; average of two independent experiments
Method: as §1, §2, §3, §4

[4] = system: Staphylococcus aureus, MRSA ST5 (2001); assay: MIC, NCCLS/CLSI guidelines (Example 5), strain D; conditions: relative to wildtype Plectasin; average of two independent experiments
Method: as §1, §2, §3, §4

[5] = system: Staphylococcus aureus, MRSA ST80 (2003); assay: MIC, NCCLS/CLSI guidelines (Example 5), strain E; conditions: relative to wildtype Plectasin; average of two independent experiments
Method: as §1, §2, §3, §4

[6] = system: panel of 6 different strains of Staphylococcus aureus; assay: Average MIC, NCCLS/CLSI guidelines using caMHB (Example 6); conditions: average over 6 S. aureus strains, duplicate; MIC above 32 counted as 64; read after 18-24 hours at 37° C.
Method: A large number of antimicrobial peptides of the invention were tested against a panel of 6 different strains of Staphylococcus aureus listed below:
Staphylococcus aureus, ATCC29213, MSSA, NCCLS reference strain; Staphylococcus aureus, ATCC25923, MSSA, NCCLS reference strain; Staphylococcus aureus, ATCC29737, MSSA; Staphylococcus aureus, E33235, MSSA; Staphylococcus aureus, 698-01, MRSA ST5, Str, Kan, Oxa; Staphylococcus aureus, 566-03, MRSA ST80, Oxa, Tet, Fus, Kan.
The staphylococci were exposed to the following peptide concentrations: 32; 16; 8; 4; 2; 1; 0.5; 0.25; 0.13; […]; and 0.03 microgram/mL. All peptides were purified, HPLC quantified and the concentrated peptides (>160 micrograms/mL) were diluted to 160 micrograms/mL in peptide dilution buffer (0.1% BSA, 0.01% Acetic Acid).
The MIC determination was done essentially as described by NCCLS/CLSI guidelines using caMHB. The MICs were read after 18-24 hours of 37° C. incubations and recorded along with the CFU in the table below.
A total number of 95 antimicrobial peptides of the invention were evaluated in duplicate against the 6 bacterial strains described above.
In the majority of the double determinations (93%), the MIC varied <2 fold. An average MIC is tabulated below. If the MIC was above 32 micrograms/mL, a value of 64 was used to calculate the average.

[7] = system: Staphylococcus carnosus ATCC51365; assay: Yeast screening assay: radial diffusion assay of yeast supernatants; set-up: key: An activity of 3 is better than Plectasin; An activity of 2 corresponds to the activity of Plectasin; 1 is worse than Plectasin; conditions: yeast supernatant, clearing zone in radial diffusion assay
Summary of the method: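 Activity scores (1 worse, 2 equal, 3 better than wild-type plectasin) come from the size of the radial-diffusion clearing zone against S. carnosus at 5×10^5 cfu/mL. Test samples were culture supernatants of yeast transformants induced with galactose for 3 days at 30 °C, and plates were developed at 37 °C with MTT.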

Row | Substance | Relative MIC, strain A [1] | Relative MIC, strain B [2] | Relative MIC, strain C [3] | Relative MIC, strain D [4] | Relative MIC, strain E [5] | Average MIC [6] [micrograms/mL] | Activity (antimicrobial activity relative to the activity of plectasin) [7]
1 | N5S + D9S + M13L + Q14R + N17V + A31S: variant of Plectasin (SEQ ID NO: 1) (GFGCSGPWSEDDLRCHVHCKSIKGYKGGYCSKGGFVCKCY) | 3 (<50% of Plectasin wildtype MIC) | 3 (<50% of Plectasin wildtype MIC) | 3 (<50% of Plectasin wildtype MIC) | 3 (<50% of Plectasin wildtype MIC) | 3 (<50% of Plectasin wildtype MIC) | 2 | 
2 | GFGCSGPWDEDDMRCHSHCKSIRGYKGGYCAKGGFVCKCY [N5S + Q14R + N17S + K23R] | 1 (80-100% of Plectasin wildtype MIC) | 3 (<50% of Plectasin wildtype MIC) | 3 (<50% of Plectasin wildtype MIC) | 3 (<50% of Plectasin wildtype MIC) |  | 8 | 3
3 | M13V + N17T: variant of Plectasin (SEQ ID NO: 1) (GFGCNGPWDEDDVQCHTHCKSIKGYKGGYCAKGGFVCKCY) |  | 3 (<50% of Plectasin wildtype MIC) | 3 (<50% of Plectasin wildtype MIC) | 3 (<50% of Plectasin wildtype MIC) | 3 (<50% of Plectasin wildtype MIC) | 3 | 
4 | N5S + D9S + M13V + N17R: variant of Plectasin (SEQ ID NO: 1) (GFGCSGPWSEDDVQCHRHCKSIKGYKGGYCAKGGFVCKCY) | 3 (<50% of Plectasin wildtype MIC) | 3 (<50% of Plectasin wildtype MIC) | 3 (<50% of Plectasin wildtype MIC) | 3 (<50% of Plectasin wildtype MIC) | 3 (<50% of Plectasin wildtype MIC) | 2 | 
5 | GFGCNGPWDEDDMFCHNHCKSIKGYKGGYCAKGGFVCKCY [Mutation Q14F] | 1 (80-100% of Plectasin wildtype MIC) |  | 3 (<50% of Plectasin wildtype MIC) | 2 (50-80% of Plectasin wildtype MIC) | 3 (<50% of Plectasin wildtype MIC) | 5 | 3
6 | M13L + Q14K + K26R: variant of Plectasin (SEQ ID NO: 1) (GFGCNGPWDEDDLKCHNHCKSIKGYRGGYCAKGGFVCKCY) | 3 (<50% of Plectasin wildtype MIC) |  | 3 (<50% of Plectasin wildtype MIC) | 3 (<50% of Plectasin wildtype MIC) |  | 9 | 
7 | GFGCNGPWDEDDMVCHNHCKSIKGYRGGYCAKGGFVCKCY [Q14V + K26R] |  |  |  |  |  | 12 | 3
8 | GFGCNGPWDEGDMQCHNHCKSVKGYKGGYCAKGGFVCKCY [D11G + I22V] |  |  |  |  |  | 17 | 3
9 | D9S + Q14L: variant of Plectasin (SEQ ID NO: 1) (GFGCNGPWSEDDMLCHNHCKSIKGYKGGYCAKGGFVCKCY) | 3 (<50% of Plectasin wildtype MIC) |  | 3 (<50% of Plectasin wildtype MIC) | 3 (<50% of Plectasin wildtype MIC) | 3 (<50% of Plectasin wildtype MIC) | 3 | 
10 | GFGCAGPWDEDDMQCHNHCKSIKGYKGGYCAKGGFVCKCY [Mutation N5A] |  |  |  |  |  | 29 | 3
11 | GFGCNGPWDEDDMQCHNHCKSIKGYKGGYCAKGGFLCKCY [Mutation V36L] |  |  |  |  |  | 26 | 3
12 | GFGCNGPWDEDDMGCHNHCKSIKGYKGGYCAKGGFVCKCY [Mutation Q14G] |  |  |  |  |  | 18 | 3
13 | GFGCNGPWVEDDMQCHNHCKSIKGYKGGYCAKGGFVCKCY [Mutation D9V] |  |  |  |  |  | 30 | 3
14 | GFGCNGPWDEDDMQCHNHCKSIKRYKGGYCAKGGFVCKCY [Mutation G24R] | 1 (80-100% of Plectasin wildtype MIC) | 2 (50-80% of Plectasin wildtype MIC) |  | 2 (50-80% of Plectasin wildtype MIC) | 2 (50-80% of Plectasin wildtype MIC) | 8 | 2
15 | GFGCNGPWKEDDMQCHNHCKSIKGYKGGYCAKGGFVCKCY [Mutation D9K] |  |  |  |  |  | 7 | 3
16 | GFGCNGPWDEDDMSCHNHCKSIKGYKGGYCAKGGFVCKCY [Mutation Q14S] |  |  |  |  |  | 21 | 3
17 | N5R + M13V: variant of Plectasin (SEQ ID NO: 1) (GFGCRGPWDEDDVQCHNHCKSIKGYKGGYCAKGGFVCKCY) | 3 (<50% of Plectasin wildtype MIC) |  | 3 (<50% of Plectasin wildtype MIC) | 2 (50-80% of Plectasin wildtype MIC) | 3 (<50% of Plectasin wildtype MIC) | 5 | 
18 | GFGCNGPWSEDDMQCHNHCKSIKGYKGGYCAKGGFVCKCY [Mutation D9S] | 2 (50-80% of Plectasin wildtype MIC) | 3 (<50% of Plectasin wildtype MIC) | 3 (<50% of Plectasin wildtype MIC) | 2 (50-80% of Plectasin wildtype MIC) |  | 7 | 3
19 | N5S + M13W + N17R: variant of Plectasin (SEQ ID NO: 1) (GFGCSGPWDEDDWQCHRHCKSIKGYKGGYCAKGGFVCKCY) | 3 (<50% of Plectasin wildtype MIC) |  | 3 (<50% of Plectasin wildtype MIC) | 3 (<50% of Plectasin wildtype MIC) | 3 (<50% of Plectasin wildtype MIC) | 2 | 
20 | GFGCNGPWDEDDSQCHNHCKSIKGYKGGYCAKGGFVCKCY [Mutation M13S] |  |  |  |  |  | 24 | 3
21 | GFGCNGPWDEDDMQCHSHCKSIRGYKGGYCAKGGFVCKCY [N17S + K23R] |  |  |  |  |  | 14 | 2
22 | M13F + Q14K + K26R: variant of Plectasin (SEQ ID NO: 1) (GFGCNGPWDEDDFKCHNHCKSIKGYRGGYCAKGGFVCKCY) | 3 (<50% of Plectasin wildtype MIC) |  | 3 (<50% of Plectasin wildtype MIC) | 3 (<50% of Plectasin wildtype MIC) | 3 (<50% of Plectasin wildtype MIC) | 6 | 
23 | GFGCNGPWDEDDMQCHNHCKSIKGYKGGYCNKGGFVCKCY [Mutation A31N] |  |  |  |  |  | 9 | 3
24 | GFGCNGPWGEDDMQCHNHCKSIKGYKGGYCAKGGFVCKCY [Mutation D9G] |  |  |  |  |  | 21 | 3
